From ChEMBL document CHEMBL3784971, “Synthesis, characterization, antimicrobial and biofilm inhibitory studies of new esterquats” (Bioorg Med Chem Lett, 2016)
Values after ≈ are worked out from the molar mass of the structure shown.

Legend:
Assay type in all cases: functional
Staphylococcus aureus [1] = assay: Antimicrobial activity against Staphylococcus aureus MTCC 96 assessed as growth inhibition after 24 hrs by agar well diffusion method; settings: MTCC 96, 24 h
Bacillus subtilis [2] = assay: Antimicrobial activity against Bacillus subtilis MTCC 121 assessed as growth inhibition after 24 hrs by agar well diffusion method; settings: MTCC 121, 24 h
Staphylococcus aureus [3] = assay: Antimicrobial activity against Staphylococcus aureus MLS16 MTCC 2940 assessed as growth inhibition after 24 hrs by agar well diffusion method; settings: MLS16 MTCC 2940, 24 h
Micrococcus luteus [4] = assay: Antimicrobial activity against Micrococcus luteus MTCC 2470 assessed as growth inhibition after 24 hrs by agar well diffusion method; settings: MTCC 2470, 24 h
Raoultella planticola [5] = assay: Antimicrobial activity against Klebsiella planticola MTCC 530 assessed as growth inhibition after 24 hrs by agar well diffusion method; settings: MTCC 530, 24 h
Escherichia coli [6] = assay: Antimicrobial activity against Escherichia coli MTCC 739 assessed as growth inhibition after 24 hrs by agar well diffusion method; settings: MTCC 739, 24 h
Pseudomonas aeruginosa = assay: Antimicrobial activity against Pseudomonas aeruginosa MTCC 2453 assessed as growth inhibition after 24 hrs by agar well diffusion method; settings: MTCC 2453, 24 h
Candida albicans [7] = assay: Antimicrobial activity against Candida albicans MTCC 3017 assessed as growth inhibition after 24 hrs by agar well diffusion method; settings: MTCC 3017, 24 h
Staphylococcus aureus [8] = assay: Bactericidal activity against Staphylococcus aureus MTCC 96 after 24 hrs by serial dilution method; settings: MTCC 96, 24 h
Bacillus subtilis [9] = assay: Bactericidal activity against Bacillus subtilis MTCC 121 after 24 hrs by serial dilution method; settings: MTCC 121, 24 h
Staphylococcus aureus [10] = assay: Bactericidal activity against Staphylococcus aureus MLS16 MTCC 2940 after 24 hrs by serial dilution method; settings: MLS16 MTCC 2940, 24 h
Micrococcus luteus [11] = assay: Bactericidal activity against Micrococcus luteus MTCC 2470 after 24 hrs by serial dilution method; settings: MTCC 2470, 24 h
Raoultella planticola [12] = assay: Bactericidal activity against Klebsiella planticola MTCC 530 after 24 hrs by serial dilution method; settings: MTCC 530, 24 h
Escherichia coli [13] = assay: Bactericidal activity against Escherichia coli MTCC 739 after 24 hrs by serial dilution method; settings: MTCC 739, 24 h
Candida albicans [14] = assay: Antimicrobial activity against Candida albicans MTCC 183 assessed as growth inhibition after 24 hrs by agar well diffusion method; settings: MTCC 183, 24 h
Candida albicans [15] = assay: Antimicrobial activity against Candida albicans MTCC 227 assessed as growth inhibition after 24 hrs by agar well diffusion method; settings: MTCC 227, 24 h
Candida albicans [16] = assay: Antimicrobial activity against Candida albicans MTCC 854 assessed as growth inhibition after 24 hrs by agar well diffusion method; settings: MTCC 854, 24 h
Candida albicans [17] = assay: Antimicrobial activity against Candida albicans MTCC 1637 assessed as growth inhibition after 24 hrs by agar well diffusion method; settings: MTCC 1637, 24 h
Candida albicans [18] = assay: Antimicrobial activity against Candida albicans MTCC 3018 assessed as growth inhibition after 24 hrs by agar well diffusion method; settings: MTCC 3018, 24 h
Candida albicans [19] = assay: Antimicrobial activity against Candida albicans MTCC 3958 assessed as growth inhibition after 24 hrs by agar well diffusion method; settings: MTCC 3958, 24 h
Candida albicans [20] = assay: Antimicrobial activity against Candida albicans MTCC 4748 assessed as growth inhibition after 24 hrs by agar well diffusion method; settings: MTCC 4748, 24 h
Candida albicans [21] = assay: Antimicrobial activity against Candida albicans MTCC 7315 assessed as growth inhibition after 24 hrs by agar well diffusion method; settings: MTCC 7315, 24 h
Candida parapsilosis [22] = assay: Antimicrobial activity against Candida parapsilosis MTCC 1744 assessed as growth inhibition after 24 hrs by agar well diffusion method; settings: Lodderomyces parapsilosis, MTCC 1744, 24 h
[Candida] aaseri [23] = Antimicrobial activity against Candida aaseri MTCC 1962 assessed as growth inhibition after 24 hrs by agar well diffusion method; settings: Yamadazyma aaseri, MTCC 1962, 24 h
Nakaseomyces glabratus [24] = assay: Antimicrobial activity against Candida glabrata MTCC 3019 assessed as growth inhibition after 24 hrs by agar well diffusion method; settings: MTCC 3019, 24 h
Pichia kudriavzevii [25] = assay: Antimicrobial activity against Candida krusei MTCC 3020 assessed as growth inhibition after 24 hrs by agar well diffusion method; settings: MTCC 3020, 24 h
Pichia sporocuriosa [26] = assay: Antimicrobial activity against Issatchenkia hanoiensis MTCC 4755 assessed as growth inhibition after 24 hrs by agar well diffusion method; settings: MTCC 4755, 24 h
Candida albicans [27] = assay: Fungicidal activity against Candida albicans MTCC 3017 after 24 hrs by serial dilution method; settings: MTCC 3017, 24 h
Candida albicans [28] = assay: Fungicidal activity against Candida albicans MTCC 183 after 24 hrs by serial dilution method; settings: MTCC 183, 24 h
Candida albicans [29] = assay: Fungicidal activity against Candida albicans MTCC 227 after 24 hrs by serial dilution method; settings: MTCC 227, 24 h
Candida albicans [30] = assay: Fungicidal activity against Candida albicans MTCC 854 after 24 hrs by serial dilution method; settings: MTCC 854, 24 h
Candida albicans [31] = assay: Fungicidal activity against Candida albicans MTCC 1637 after 24 hrs by serial dilution method; settings: MTCC 1637, 24 h
Candida albicans [32] = assay: Fungicidal activity against Candida albicans MTCC 3018 after 24 hrs by serial dilution method; settings: MTCC 3018, 24 h
Candida albicans [33] = assay: Fungicidal activity against Candida albicans MTCC 3958 after 24 hrs by serial dilution method; settings: MTCC 3958, 24 h
Candida albicans [34] = assay: Fungicidal activity against Candida albicans MTCC 4748 after 24 hrs by serial dilution method; settings: MTCC 4748, 24 h
Candida albicans [35] = assay: Fungicidal activity against Candida albicans MTCC 7315 after 24 hrs by serial dilution method; settings: MTCC 7315, 24 h
Candida parapsilosis [36] = assay: Fungicidal activity against Candida parapsilosis MTCC 1744 after 24 hrs by serial dilution method; settings: Lodderomyces parapsilosis, MTCC 1744, 24 h
[Candida] aaseri [37] = Fungicidal activity against Candida aaseri MTCC 1962 after 24 hrs by serial dilution method; settings: Yamadazyma aaseri, MTCC 1962, 24 h
Nakaseomyces glabratus [38] = assay: Fungicidal activity against Candida glabrata MTCC 3019 after 24 hrs by serial dilution method; settings: MTCC 3019, 24 h
Pichia kudriavzevii [39] = assay: Fungicidal activity against Candida krusei MTCC 3020 after 24 hrs by serial dilution method; settings: MTCC 3020, 24 h
Pichia sporocuriosa [40] = assay: Fungicidal activity against Issatchenkia hanoiensis MTCC 4755 after 24 hrs by serial dilution method; settings: MTCC 4755, 24 h

## CCCCCCCCCCCCCCCCCC[N+](C)(CCCCCCCCCCC(=O)OC)CCCCCCCCCCC(=O)OC.[Cl-]
Staphylococcus aureus [1]
  MIC: > 125 µg/mL
Bacillus subtilis [2]
  MIC: > 125 µg/mL
Staphylococcus aureus [3]
  MIC: > 125 µg/mL
Micrococcus luteus [4]
  MIC: > 125 µg/mL
Raoultella planticola [5]
  MIC: > 125 µg/mL
Escherichia coli [6]
  MIC: > 125 µg/mL
Pseudomonas aeruginosa
  MIC: > 125 µg/mL
Candida albicans [7]
  MIC: > 125 µg/mL
Staphylococcus aureus [8]
  MBC: > 125 µg/mL
Bacillus subtilis [9]
  MBC: > 125 µg/mL
Staphylococcus aureus [10]
  MBC: > 125 µg/mL
Micrococcus luteus [11]
  MBC: > 125 µg/mL
Raoultella planticola [12]
  MBC: > 125 µg/mL
Escherichia coli [13]
  MBC: > 125 µg/mL

## Clc1ccc(COC(Cn2ccnc2)c2ccc(Cl)cc2Cl)c(Cl)c1 (stereo unspecified) [MICONAZOLE]
Candida albicans [7]
  MIC: 7.8 µg/mL (≈ 18.7 µM)
Candida albicans [14]
  MIC: 7.8 µg/mL (≈ 18.7 µM)
Candida albicans [15]
  MIC: 7.8 µg/mL (≈ 18.7 µM)
Candida albicans [16]
  MIC: 7.8 µg/mL (≈ 18.7 µM)
Candida albicans [17]
  MIC: 7.8 µg/mL (≈ 18.7 µM)
Candida albicans [18]
  MIC: 7.8 µg/mL (≈ 18.7 µM)
Candida albicans [19]
  MIC: 7.8 µg/mL (≈ 18.7 µM)
Candida albicans [20]
  MIC: 7.8 µg/mL (≈ 18.7 µM)
Candida albicans [21]
  MIC: 7.8 µg/mL (≈ 18.7 µM)
Candida parapsilosis [22]
  MIC: 7.8 µg/mL (≈ 18.7 µM)
[Candida] aaseri [23]
  MIC: 7.8 µg/mL (≈ 18.7 µM)
Nakaseomyces glabratus [24]
  MIC: 7.8 µg/mL (≈ 18.7 µM)
Pichia kudriavzevii [25]
  MIC: 7.8 µg/mL (≈ 18.7 µM)
Pichia sporocuriosa [26]
  MIC: 7.8 µg/mL (≈ 18.7 µM)
Candida albicans [27]
  MFC: 7.8 µg/mL (≈ 18.7 µM)
Candida albicans [28]
  MFC: 7.8 µg/mL (≈ 18.7 µM)
Candida albicans [29]
  MFC: 15.6 µg/mL (≈ 37.5 µM)
Candida albicans [30]
  MFC: 15.6 µg/mL (≈ 37.5 µM)
Candida albicans [31]
  MFC: 15.6 µg/mL (≈ 37.5 µM)
Candida albicans [32]
  MFC: 7.8 µg/mL (≈ 18.7 µM)
Candida albicans [33]
  MFC: 15.6 µg/mL (≈ 37.5 µM)
Candida albicans [34]
  MFC: 7.8 µg/mL (≈ 18.7 µM)
Candida albicans [35]
  MFC: 7.8 µg/mL (≈ 18.7 µM)
Candida parapsilosis [36]
  MFC: 7.8 µg/mL (≈ 18.7 µM)
[Candida] aaseri [37]
  MFC: 7.8 µg/mL (≈ 18.7 µM)
Nakaseomyces glabratus [38]
  MFC: 15.6 µg/mL (≈ 37.5 µM)
Pichia kudriavzevii [39]
  MFC: 7.8 µg/mL (≈ 18.7 µM)
Pichia sporocuriosa [40]
  MFC: 7.8 µg/mL (≈ 18.7 µM)

## CCCCCCCCCCCCCCCCCCN(CCCCCCCCCCC(=O)OC)CCCCCCCCCCC(=O)OC
Staphylococcus aureus [1]
  MIC: > 125 µg/mL
Bacillus subtilis [2]
  MIC: > 125 µg/mL
Staphylococcus aureus [3]
  MIC: > 125 µg/mL
Micrococcus luteus [4]
  MIC: > 125 µg/mL
Raoultella planticola [5]
  MIC: > 125 µg/mL
Escherichia coli [6]
  MIC: > 125 µg/mL
Pseudomonas aeruginosa
  MIC: > 125 µg/mL
Candida albicans [7]
  MIC: > 125 µg/mL
Staphylococcus aureus [8]
  MBC: > 125 µg/mL
Bacillus subtilis [9]
  MBC: > 125 µg/mL
Staphylococcus aureus [10]
  MBC: > 125 µg/mL
Micrococcus luteus [11]
  MBC: > 125 µg/mL
Raoultella planticola [12]
  MBC: > 125 µg/mL
Escherichia coli [13]
  MBC: > 125 µg/mL
